Experimental data: PubChem BioAssay (NCI)
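How tested: cells in 96-well plates exposed to compound for 48 hours at five concentrations. Abbreviation: GI50, concentration required for 50% inhibition of growth. The concentration for full growth arrest is given as TGI.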

How the values were obtained:
Experiment in all cases: growth of human tumour cells (NCI), 48 h
ACHN renal = tested on: ACHN renal
SK-MEL-28 melanoma = tested on: SK-MEL-28 melanoma
HCC-2998 colon = tested on: HCC-2998 colon
UACC-257 melanoma = tested on: UACC-257 melanoma
786-0 renal = tested on: 786-0 renal
MALME-3M melanoma = tested on: MALME-3M melanoma
SK-MEL-5 melanoma = tested on: SK-MEL-5 melanoma
IGROV1 ovarian = tested on: IGROV1 ovarian

| Structure (SMILES) | TGI (ACHN renal) [µM] | TGI (SK-MEL-28 melanoma) [µM] | TGI (HCC-2998 colon) [µM] | TGI (UACC-257 melanoma) [µM] | TGI (786-0 renal) [µM] | TGI (MALME-3M melanoma) [µM] | TGI (SK-MEL-5 melanoma) [µM] | TGI (IGROV1 ovarian) [µM] | GI50 (ACHN renal) [µM] | GI50 (SK-MEL-28 melanoma) [µM] | GI50 (HCC-2998 colon) [µM] | GI50 (UACC-257 melanoma) [µM] | GI50 (786-0 renal) [µM] | GI50 (MALME-3M melanoma) [µM] | GI50 (SK-MEL-5 melanoma) [µM] | GI50 (IGROV1 ovarian) [µM] |
| --- | --- | --- | --- | --- | --- | --- | --- | --- | --- | --- | --- | --- | --- | --- | --- | --- |
| CCCCCCCCCCC(C)CCCCCCC(=O)O (stereo unspecified) | > 100 | > 100 | > 100 | > 100 | > 100 | > 100 | > 100 | > 100 |  |  |  |  |  |  |  |  |
| CCN(CC)CCNC(=O)c1cccc2nc3ccccc3nc12 | > 100 | 34.3 | 52 | 27.7 | > 100 | 24.6 | > 100 | > 100 |  |  |  |  |  |  |  |  |
| O=C(CC/C(CC(=O)c1ccc(Br)cc1)=N\O)Nc1ccc(Cl)c(Cl)c1 | > 100 | > 100 | > 100 | > 100 | > 100 | > 100 | > 100 | > 100 |  |  |  |  |  |  |  |  |
| CN(C)CC/C(=N\Nc1ccc(Cl)cc1Cl)c1ccccc1 | 29.4 | 28.5 |  | 30.1 | 27.5 | 49.7 | 27.9 | 22.8 |  |  |  |  |  |  |  |  |
| CCC[CH2][Sn]1([CH2]CCC)[O]CC(C)[O]1 (stereo unspecified) | 2.89 | 3.96 | 2.91 | 2.56 | 2.84 | 2.22 | 3.26 | 3.94 | 1.54 | 2.24 | 1.46 | 1.07 | 1.48 | 0.544 | 1.47 | 1.88 |
| Cc1cccc2c(O)cc(=O)oc12 | > 100 | > 100 |  | > 100 | > 100 | > 100 |  | > 100 |  |  |  |  |  |  |  |  |
| CC(=O)[CH-]C(C)=O.CC(=O)[CH-]C(C)=O.CC[O-].CC[O-].[Ti+4] | > 100 | > 100 | > 100 | > 100 | > 100 | > 100 | > 100 | > 100 | > 100 | > 100 | > 100 | > 100 | > 100 | > 100 | > 100 | > 100 |
| NNC(=O)C(=O)N/N=C(\CCC(=O)Nc1ccc(Cl)cc1)Cc1nc2ccccc2s1 | > 100 | > 100 | > 100 | > 100 | > 100 | > 100 | 43.6 | 51.3 |  |  |  |  |  |  |  |  |
| N.N.O=P([O-])([O-])C1(P(=O)([O-])[O-])CCCCCN1.[Pt+2] | > 100 | > 100 | > 100 | > 100 | > 100 | > 100 | > 100 | > 100 | > 100 | > 100 | > 100 | > 100 | > 100 | > 100 | > 100 | > 100 |
| O=C(CCC(=O)C1CCC/C1=N/O)Nc1ccc(Cl)cc1 (stereo unspecified) | > 100 | > 100 | > 100 | > 100 | > 100 | > 100 | > 100 | > 100 |  |  |  |  |  |  |  |  |
| CC(=O)[O-].O=C([CH-]C(=O)c1ccccc1)c1ccccc1.O=C([CH-]C(=O)c1ccccc1)c1ccccc1.[Sm+3] | 25.3 | 37.8 | 14.6 | 24.1 | 16.3 | 34 | 10.2 | 45.1 | 4.96 | 5.87 | 3.81 | 5.66 | 3.2 | 4.08 | 1.66 | 5.92 |
| Cn1cccc1/C=C/c1cc(Br)c(/C=C/c2cccn2C)cc1Br | 26.1 | 31.5 | 16.6 | > 100 | 20.2 | 31.2 | 32 | 53.2 |  |  |  |  |  |  |  |  |
| Cc1ccc(C(=O)CC2=Nc3nnc(CCCCCCCc4nnc5n4C(=O)C(CC(=O)c4ccc(C)cc4)=N5)n3C2=O)cc1 | > 100 | > 100 | > 100 | > 100 | > 100 | > 100 | > 100 | > 100 |  |  |  |  |  |  |  |  |
| CC1(C)CC(N(C(=O)/C=C/c2ccc([N+](=O)[O-])o2)C2CCCCC2)CC(C)(C)N1 | 25.4 | 25.1 | 23.6 | 23.1 | 19.4 |  | 21.8 | 29.1 |  |  |  |  |  |  |  |  |
| CC(C)=CC(=O)Cc1nc2ccc([N+](=O)[O-])cc2[nH]c1=O | > 100 | > 100 |  | > 100 | > 100 | > 100 | > 100 | > 100 |  |  |  |  |  |  |  |  |
| COC(=O)c1nn(C(=N)c2ccc(Cl)cc2)c2c1CCC2 | > 100 | > 100 | > 100 | > 100 | > 100 | > 100 | > 100 | > 100 |  |  |  |  |  |  |  |  |
| Brc1cc2c(cc1Br)CN(c1ccccc1)C2 | > 100 | > 100 | > 100 | > 100 | > 100 | > 100 | > 100 | > 100 |  |  |  |  |  |  |  |  |
| O=C(NC(=O)c1ccccc1[N+](=O)[O-])Nc1ccc(Oc2ncc(Cl)cn2)c(C(F)(F)F)c1 | 32.1 | > 4.64 | 0.0775 | 41.8 | 24.6 | > 100 | 1.17 | > 100 |  |  |  |  |  |  |  |  |
